In experiment [1] the target is T1, thromboxane-A2 receptor (Homo sapiens, UniProt P21731).
T1 sequence (P21731 1-343): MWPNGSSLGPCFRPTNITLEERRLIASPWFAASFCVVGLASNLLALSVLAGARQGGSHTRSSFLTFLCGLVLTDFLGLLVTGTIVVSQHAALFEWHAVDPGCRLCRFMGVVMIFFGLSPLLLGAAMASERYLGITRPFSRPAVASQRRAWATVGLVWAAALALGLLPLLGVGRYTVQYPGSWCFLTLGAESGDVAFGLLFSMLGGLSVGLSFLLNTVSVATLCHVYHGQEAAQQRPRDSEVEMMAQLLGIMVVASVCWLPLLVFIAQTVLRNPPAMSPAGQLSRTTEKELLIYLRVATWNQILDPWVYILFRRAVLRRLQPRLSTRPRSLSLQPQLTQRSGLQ
Kind of experiment: inhibition of U-46619 induced aggregation in human platelet rich plasma. The class given is cell-based. As to conditions: in vitro. The procedure: (§1) The inhibition of thromboxane-A2 receptor activity is determined by measuring the inhibition of U-46619 induced platelet aggregation of aspirinated human washed platelets and in human platelet rich plasma. U-46619 is (15S)-hydroxy-11-α,9-α(epoxymethanol)-prosta-(5Z,13E)-dienoic acid, a throm boxane-A2 receptor agonist, as described by Di Minno et at, Thromb. Haemost. 45, 103 (1981).
(§2) Such inhibition of platelet aggregation is determined using methodology known in the art, e.g. in vitro in the presence of a compound of the invention in human platelet rich plasma, or by measuring the inhibition of aggregation seen in plasma obtained from a mammal previously administered a compound of the invention, e.g. orally or intravenously when compared to controls. Platelet aggregation is measured in a Born aggregometer and platelet rich plasma is prepared from venous blood e.g. as described in Br. J. Haematol. 43, 637 (1979). Suitable test animals are anesthetized rats or guinea pigs and unanesthetized rabbits or cyanomolgus monkeys.

Experiment [2] has as its target T1, thromboxane-A2 receptor. Kind of experiment: inhibition of U-46619-induced aggregation of aspirinated washed human platelets. Also noted: U-46619 induced platelet aggregation of aspirinated human washed platelets and in human platelet rich plasma; endogenous in cells; host or cells: human platelets (aspirinated washed platelets in A1; platelet rich plasma in A2). As to conditions: in vitro. The class given is cell-based. The procedure: Acad. Sci. 76, 4097 (1979).
as §1

Experiment [3] has as its system U46619-induced platelet aggregation. The experiment can be described thus: inhibition of U46619-induced platelet aggregation after oral dosing in guinea pigs. The class given is in vivo, guinea pig. The procedure:
as §2

The next experiment concerns thromboxane synthetase. Kind of experiment: serum thromboxane B2, 6-keto-PGF1α and PGE2 levels after oral dosing in cyanomolgus monkeys. The conditions noted are these: 30 mg/kg. The class given is in vivo, cyanomolgus monkey.
Experiment [4] concerns U46619-induced ex vivo platelet aggregation. Kind of experiment: U46619-induced ex vivo platelet aggregation after oral dosing in cyanomolgus monkeys. As to conditions: 30 mg/kg. More on the design: species or system cyanomolgus monkey. The procedure:
as §2

[5] abbreviates: concomitant with serum thromboxane B2 inhibition.

Broadly, the IC50 is the point on the concentration scale where inhibition reaches its midpoint. For `O=C(O)CCC=CCCC1C(OCc2ccc(-c3ccccc3)cc2)COC1c1cccnc1` (stereo not drawn) [Example 8(a), (Z)-(2α,3β,4β)-7-[4-(biphenyl-4-yl-methoxy)-2-(3-pyridyl)tetrahydrofuran-3-yl)hept-4-enoic acid], the IC50 at thromboxane-A2 receptor [1] is about 400 nM; against thromboxane-A2 receptor [2], 28 nM.
For the molecule `O=C(O)CC/C=C\CC[C@@H]1[C@@H](OCc2ccc(-c3ccccc3)cc2)CO[C@@H]1c1cccnc1` [Example 1, (Z)-(2S,3S,4R)-7-[4-(1,1'-biphenyl-4-ylmethoxy)-2-(3-pyridyl)tetrahydrofuran-3-yl]-4-heptenoic acid], 250 nM corresponded to half-maximal inhibition against thromboxane-A2 receptor [1] (IC50). Further, half-maximal inhibition against thromboxane-A2 receptor [2] (IC50) required 26.5 nM. The “inhibition of U46619-induced platelet aggregation 1 hour post dose” value in experiment [3] (conscious guinea pigs, oral, 0.3 mg/kg, 1 hour post dose) is “effectively inhibits”. Further, the “increase of the concentration of thromboxane-mimetic required to induce 50% maximal aggregation” value in experiment [3] (guinea pigs, oral dose of 0.23 mg/kg) is 50 fold. In the experiment on thromboxane synthetase, the “duration of inhibition of serum thromboxane B2” value was 24 h. Moreover, in the experiment with thromboxane synthetase (setting [5]), the 6-keto-PGF1α level result is given as “elevations” and the PGE2 level result is “elevations”. Moreover, in experiment [4], the “duration of total inhibition of U46619-induced ex vivo platelet aggregation” value is reported as “at least 8 hours” and the “time of return of ex vivo platelet aggregation to predose values” is 24 h. Moreover, the “inhibition of U46619-induced ex vivo platelet aggregation” value in experiment [4] (for at least 8 hours) is “totally inhibited”.

These data come from patent US5371096A, “(3-pyridyl)tetrafuran-2-yl substituted carboxylic acids” (Ciba-Geigy Corporation, priority 1993, dated 1994).
